Reference: US5055396A, “Diagnostic methods and systems for quantifying APO AI” (Scripps Clinic and Research Foundation, priority 1987, dated 1991)

Key:
MAB AI-18 [1] = experiment: Solid-phase polypeptide competitive ELISA (AI90-105 coated wells, HRP-type labeled MAB AI-18); assay type: binding, mouse; settings: reference material: pool of about 20 normal plasmas; FIG. 8
Protocol: Six hundred microliters of 25 mM NH4 HCO3, pH 9.6, containing polypeptide AI90-105 at a concentration of 5 mg/ml were admixed with 119.4 ml of 0.1M NaHC)3, pH 9.0, to form a peptide coating solution. One hundred fifty microliters of the coating solution were admixed into the wells of flexible polyvinyl chloride microtiter plates (Nunc, Source). The wells were then maintained about 16-20 hours at 4 degrees C. to permit the peptide to adsorb onto (coat) the walls of the wells. After removing the peptide coating solution by shaking, the wells were washed once with 350 ul of rinsing buffer (PBS containing 1 gm/l BSA, 0.5 ml/l Tween 20, and 2 ul/l aprotinin). Excess protein binding sites were blocked by admixing 200 ul of blocking buffer (PBS containing 3% BSA) into each well, maintaining the wells for 1 hour at 20 degrees C., removing the blocking buffer by shaking, and then washing the wells 3 times as previously described. […]
Two hundred microliters of OPD substrate were then admixed into each well to form a developing-reaction admixture, which was maintained for 30 minutes at about 20 degrees C. Subsequently, 50 ul of 4N H2 SO4 were admixed into each well to stop the developing-reaction, and the resulting solution were assayed for absorbance at 490 nanometers using a microtiter plate reader (Dynatech). […]

MAB AI-18 [2] = experiment: Competitive RIA: inhibition of MAB AI-18 binding to solid-phase Apo AI/HDL by competitor antigen or peptide; parameters: species or system mouse; settings: for Immunoreactivity (concentration of peptide competitor required to achieve a B/Bo value of 0.5): competitive RIA, MAB AI-18 ascites 1:1.25×10^5, solid-phase Apo AI/HDL; for B/Bo: background-adjusted
Protocol: One hundred ul of PBS (0.15M NaCl, 0.01M NaPO4, pH 7.2) containing 10 ug/ml Apo AI/HDL were admixed to the wells of microtiter plates. The plates were maintained for 1 hour at 20 degrees C. on a rotating platform to allow the Apo AI/HDL to adhere to the wells and form solid supports. After aspirating excess liquid from the wells, 200 ul of block solution (3% BSA, 3% NGS in PBS) was admixed to each well, and the wells were maintained for 30 minutes at 20 degrees C. on a rotating platform. Subsequently, the blocking solution was removed by aspiration and the wells were washed 3 times with SPRIA buffer.
In control wells either competing antigen or antibody was replaced by PBS containing 3% BSA.
The immunoreaction admixtures were maintained about 16 hours at 4 degrees C. on a rotating platform to permit formation of solid-phase immunoreaction products. […] The labeling immunoreaction admixtures so formed were maintained for 4 hours at 4 degrees C. on a rotating platform.
[…] of serial 3 fold dilutions of each sample prepared in Table 3 were admixed as competitor in the RIA described in this Example.
Fifty microliters of the stock of 2 fold serial dilutions of the stock were used as competitor in the RIA described in this Example.

Row | expression of the epitope recognized by MAB AI-18 after NaOH treatment (MAB AI-18 [2]; NaOH treated Apo AI/HDL, 18 hours at about 20 degrees C) | CPM of 125I-labeled solid phase immunoreaction product (MAB AI-18 [2]; competitor dilution 1:3) [CPM] | B/Bo (MAB AI-18 [2]; competitor dilution 1:3) | CPM of 125I-labeled solid phase immunoreaction product (MAB AI-18 [2]; competitor dilution 1:9) [CPM] | B/Bo (MAB AI-18 [2]; competitor dilution 1:9) | CPM of 125I-labeled solid phase immunoreaction product (MAB AI-18 [2]; competitor dilution 1:27) [CPM] | B/Bo (MAB AI-18 [2]; competitor dilution 1:27) | CPM of 125I-labeled solid phase immunoreaction product (MAB AI-18 [2]; competitor dilution 1:81) [CPM] | B/Bo (MAB AI-18 [2]; competitor dilution 1:81) | CPM of 125I-labeled solid phase immunoreaction product (MAB AI-18 [2]; competitor dilution 1:243) [CPM] | B/Bo (MAB AI-18 [2]; competitor dilution 1:243) | CPM of 125I-labeled solid phase immunoreaction product (MAB AI-18 [2]; competitor dilution 1:729) [CPM] | B/Bo (MAB AI-18 [2]; competitor dilution 1:729) | CPM of 125I-labeled solid phase immunoreaction product (MAB AI-18 [2]; competitor dilution Neat) [CPM] | B/Bo (MAB AI-18 [2]; competitor dilution Neat) | Substance | immunoreactivity of MAB AI-18 for peptide compared with reference material (MAB AI-18 [1]) | Immunoreactivity (concentration of peptide competitor required to achieve a B/Bo value of 0.5) (MAB AI-18 [2]) [ug protein/ml]
1 |  |  |  |  |  |  |  |  |  |  |  |  |  |  |  | LEEVKAKVQPYLDDFQ [AI90-105] | equivalent immunoreactivities | 30
2 | decrease in expression of the epitope | 553 | 0.046 | 881 | 0.088 | 1543 | 0.173 | 2283 | 0.268 | 3338 | 0.404 | 4918 | 0.607 | 263 | 0.009 | E: NaOH treated Apo AI/HDL, 15 ul 1N NaOH, pH 11.33 |  | 
3 |  |  |  |  |  |  |  |  |  |  |  |  |  |  |  | LEEVKAKVQPYLDDFQKKWQEE [AI90-111] |  | 9
